pIC50: −log10 of the molar value.
target: T1, human capsaicin receptor (Homo sapiens, UniProt Q8NER1); assay: Calcium mobilization assay, determination of antagonist activity; type: cell-based; details: capsaicin at EC50; cells expressing human capsaicin receptor; Example 6
T1 construct: expressed in transfected cells; host or cells: HEK293, stably transfected with pBK-CMV construct
Description: A cDNA encoding full length human capsaicin receptor (SEQ ID NO:1, 2 or 3 of U.S. Pat. No. 6,482,611) is subcloned in the plasmid pBK-CMV (Stratagene, La Jolla, Calif.) for recombinant expression in mammalian cells.
Human embryonic kidney (HEK293) cells are transfected with the pBK-CMV expression construct encoding the full length human capsaicin receptor using standard methods. The transfected cells are selected for two weeks in media containing G418 (400 μg/ml) to obtain a pool of stably transfected cells. Independent clones are isolated from this pool by limiting dilution to obtain clonal stable cell lines for use in subsequent experiments.
Cells transfected with expression plasmids (as described in Example 4) and thereby expressing human capsaicin receptor are seeded and grown to 70-90% confluency in FALCON black-walled, clear-bottomed 96-well plates (#3904, BECTON-DICKINSON, Franklin Lakes, N.J.). The culture medium is emptied from the 96 well plates and FLUO-3 AM calcium sensitive dye (Molecular Probes, Eugene, Oreg.) is added to each well (dye solution: 1 mg FLUO-3 AM, 440 μL DMSO and 440 μl 20% pluronic acid in DMSO, diluted 1:250 in Krebs-Ringer HEPES (KRH) buffer (25 mM HEPES, 5 mM KCl, 0.96 mM NaH2PO4, 1 mM MgSO4, 2 mM CaCl2, 5 mM glucose, 1 mM probenecid, pH 7.4), 50 μl diluted solution per well). Plates are covered with aluminum foil and incubated at 37° C. for 1-2 h in an environment containing 5% CO2. After the incubation, the dye is emptied from the plates, and the cells are washed once with KRH buffer, and resuspended in KRH buffer.
To measure the ability of a test compound to agonize or antagonize a calcium mobilization response in cells expressing capsaicin receptors to capsaicin or other vanilloid agonist, the EC50 of the agonist capsaicin is first determined. An additional 20 μl of KRH buffer and 1 μl DMSO is added to each well of cells, prepared as described above. 100 μl capsaicin in KRH buffer is automatically transferred by the FLIPR instrument to each well. Capsaicin-induced calcium mobilization is monitored using either FLUOROSKAN ASCENT (Labsystems; Franklin, Mass.) or FLIPR (fluorometric imaging plate reader system; Molecular Devices, Sunnyvale, Calif.) instruments. Data obtained between 30 and 60 seconds after agonist application are used to generate an 8-point concentration response curve, with final capsaicin concentrations of 1 nM to 3 μM. KALEIDAGRAPH software (Synergy Software, Reading, Pa.) is used to fit the data to the equation: y=a*(1/(1+(b/x)^c)) to determine the 50% excitatory concentration (EC50) for the response. In this equation, y is the maximum fluorescence signal, x is the concentration of the agonist or antagonist (in this case, capsaicin), a is the Emax, b corresponds to the EC50 value and c is the Hill coefficient. Determination of Agonist Activity
Test compounds are dissolved in DMSO, diluted in 20 μl KRH buffer so that the final concentration of test compounds in the assay well is between 1 μM and 5 μM, and added to cells prepared as described above. The 96 well plates containing prepared cells and test compounds are incubated in the dark, at room temperature for 0.5 to 6 h. It is important that the incubation not continue beyond 6 h. Just prior to determining the fluorescence response, 100 μl capsaicin in KRH buffer at twice the EC50 concentration determined as described above is automatically added by the FLIPR instrument to each well of the 96 well plate for a final sample volume of 200 μl and a final capsaicin concentration equal to the EC50. The final concentration of test compounds in the assay wells is between 1 μM and 5 μM. […] The concentration of antagonist required to provide a 50% decrease, relative to the response observed in the presence of capsaicin and without antagonist, is the IC50 for the antagonist, and is preferably below 1 micromolar, 100 nanomolar, 10 nanomolar or 1 nanomolar.

T1 sequence (Q8NER1 whole entry): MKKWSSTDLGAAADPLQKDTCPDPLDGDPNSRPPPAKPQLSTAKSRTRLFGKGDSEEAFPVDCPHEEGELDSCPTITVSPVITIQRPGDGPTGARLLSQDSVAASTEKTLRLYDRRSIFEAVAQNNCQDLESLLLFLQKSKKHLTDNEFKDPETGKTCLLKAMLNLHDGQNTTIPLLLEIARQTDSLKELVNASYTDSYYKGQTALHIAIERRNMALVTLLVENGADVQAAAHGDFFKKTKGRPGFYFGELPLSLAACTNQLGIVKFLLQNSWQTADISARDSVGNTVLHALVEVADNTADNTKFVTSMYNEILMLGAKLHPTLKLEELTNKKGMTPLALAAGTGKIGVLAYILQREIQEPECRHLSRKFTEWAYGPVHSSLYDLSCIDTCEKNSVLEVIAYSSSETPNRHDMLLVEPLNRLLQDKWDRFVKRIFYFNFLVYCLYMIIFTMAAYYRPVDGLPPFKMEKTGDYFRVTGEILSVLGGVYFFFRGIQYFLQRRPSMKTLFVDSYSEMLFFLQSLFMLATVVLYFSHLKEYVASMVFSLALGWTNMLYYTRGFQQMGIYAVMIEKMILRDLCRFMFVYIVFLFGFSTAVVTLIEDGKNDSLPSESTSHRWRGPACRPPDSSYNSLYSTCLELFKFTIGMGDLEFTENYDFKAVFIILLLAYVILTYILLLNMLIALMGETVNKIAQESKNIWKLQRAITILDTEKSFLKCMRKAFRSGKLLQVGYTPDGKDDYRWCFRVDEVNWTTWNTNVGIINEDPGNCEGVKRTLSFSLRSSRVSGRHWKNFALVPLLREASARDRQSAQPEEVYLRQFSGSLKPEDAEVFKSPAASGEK

Row | Structure (SMILES) | pIC50
1 | C[C@@H]1CN(c2ncc(C(N)=O)cc2Cl)CCN1c1cc(-c2ccc(F)c(Cl)c2)ncn1 [Example 86, 5-Chloro-6-{4-[6-(3-chloro-4-fluoro-phenyl)-pyrimidin-4-yl]-3-(R)-methyl-piperazin-1-yl}-nicotinamide] | ≥ 6.00
2 | C[C@@H]1CN(c2ncc(C(=O)NCCO)cc2Cl)CCN1c1cc(-c2ccccc2)nc(N2CCC[C@H]2C)n1 [Example 167, 5-Chloro-N-(2-hydroxy-ethyl)-6-{3-(R)-methyl-4-[2-(2-(R)-methyl-pyrrolidin-1-yl)-6-phenyl-pyrimidin-4-yl]-piperazin-1-yl}-nicotinamide] | ≥ 6.00
3 | Cc1cc(C(N)=O)cnc1N1CCN(c2cc(-c3ccc(F)cc3)nc(N3CCCC3C)n2)[C@H](C)C1 (stereo partly drawn) [Example 44, 6-{4-[6-(4-Fluoro-phenyl)-2-(2-methyl-pyrrolidin-1-yl)-pyrimidin-4-yl]-3-(R)-methyl-piperazin-1-yl}-5-methyl-nicotinamide] | ≥ 6.00
4 | Cc1cccnc1N1CCN(c2nc(N3CCC[C@H]3C)nc(-c3ccc(F)cc3)c2F)[C@H](C)C1 [Example 189, 5-fluoro-4-(4-fluorophenyl)-6-[(2R)-2-methyl-4-(3-methylpyridin-2-yl)piperazin-1-yl]-2-[(2R)-2-methylpyrrolidin-1-yl]pyrimidine] | ≥ 6.00
5 | C[C@@H]1CN(c2ncc(CC#N)cc2Cl)CCN1c1cc(-c2ccc(F)cc2)nc(N2CCC[C@H]2C)n1 [Example 100, (5-Chloro-6-{4-[6-(4-fluoro-phenyl)-2-(2-(R)-methyl-pyrrolidin-1-yl)-pyrimidin-4-yl]-3-(R)-methyl-piperazin-1-yl}-pyridin-3-yl)-acetonitrile] | ≥ 6.00
6 | Cc1cc(-c2nnn[nH]2)cnc1N1CCN(c2cc(-c3ccc(F)cc3)nc(N3CCC[C@H]3C)n2)[C@H](C)C1 [Example 164, 4-(4-Fluoro-phenyl)-6-{2-(R)-methyl-4-[3-methyl-5-(1H-tetrazol-5-yl)-pyridin-2-yl]-piperazin-1-yl}-2-(2-(R)-methyl-pyrrolidin-1-yl)-pyrimidine] | ≥ 6.00
7 | Cc1cc(C(=O)N2CCC(N(C)C)C2)cnc1N1CCN(c2cc(-c3ccc(F)cc3)nc(N3CCCC3C)n2)CC1 (stereo not drawn) [Example 139, l-[(6-{4-[6-(4-fluorophenyl)-2-(2-methylpyrrolidin-1-yl)pyrimidin-4-yl]piperazin-1-yl}-5-methylpyridin-3-yl)carbonyl]-N,N-dimethylpyrrolidin-3 amine] | ≥ 6.00
8 | CC(C)c1cc(-c2cc(N3CCN(c4ncc(CO)cc4Cl)C[C@H]3C)nc(N3CCCC3C)n2)ccn1 (stereo partly drawn) [Example 50, (5-Chloro-6-{4-[6-(2-isopropyl-pyridin-4-yl)-2-(2-methyl-pyrrolidin-1-yl)-pyrimidin-4-yl]-3-(R)-methyl-piperazin-1-yl}-pyridin-3-yl)-methanol] | ≥ 6.00
9 | CCOC(=O)c1cnc(N2CCN(c3cc(-c4cncc(Cl)c4)nc(N4CCCC4C)n3)[C@H](C)C2)c(Cl)c1 (stereo partly drawn) [Example 42, 5-Chloro-6-{4-[6-(5-chloro-pyridin-3-yl)-2-(2-methyl-pyrrolidin-1-yl)-pyrimidin-4-yl]-3-(R)-methyl-piperazin-1-yl}-nicotinic acid ethyl ester] | ≥ 6.00
10 | COCC(C)NC(=O)c1cnc(N2CCN(c3cc(-c4ccc(F)cc4)nc(N4CCCC4C)n3)CC2)c(C)c1 (stereo not shown) [Example 117, 6-{4-[6-(4-fluorophenyl)-2-(2-methylpyrrolidin-1-yl)pyrimidin-4-yl]piperazin-1-yl}-N-(2-methoxy-1-methylethyl)-5-methylnicotinamide] | ≥ 6.00
11 | CC1CCCN1c1nc(-c2ccccc2)cc(N2CCN(c3ncc(CO)cc3Cl)C[C@H]2C)n1 (stereo partly drawn) [Example 47, (5-Chloro-6-{3-(R)-methyl-4-[2-(2-methyl-pyrrolidin-1-yl)-6-phenyl-pyrimidin-4-yl]-piperazin-1-yl}-pyridin-3-yl)-methanol] | ≥ 6.00
12 | Cc1cc(CO)cnc1N1CCN(c2cc(-c3ccncc3)nc(N3CCCC3C)n2)[C@H](C)C1 (stereo partly drawn) [Example 65, (5-Methyl-6-{3-(R)-methyl-4-[2-(2-methyl-pyrrolidin-1-yl)-6-pyridin-4-yl-pyrimidin-4-yl]-piperazin-1-yl}-pyridin-3-yl)-methanol] | ≥ 6.00

Second part, the compound after the results:

Row | pIC50 | Structure (SMILES)
13 | ≥ 6.00 | Cc1cc(C(=O)N2CCC(C)CC2)cnc1N1CCN(c2cc(-c3ccc(F)cc3)nc(N3CCCC3C)n2)CC1 (stereo not shown) [Example 125, 4-(4-fluorophenyl)-6-(4-{3-methyl-5-[(4-methylpiperidin-1-yl)carbonyl]pyridin-2-yl}piperazin-1-yl)-2-(2-methylpyrrolidin-1-yl)pyrimidine]
14 | ≥ 6.00 | CC1CCCN1c1nc(-c2ccc(F)cc2)cc(N2CCN(c3ncc(CO)cc3Cl)CC2)n1 (stereo not shown) [Example 26, (5-Chloro-6-{4-[6-(4-fluoro-phenyl)-2-(2-methyl-pyrrolidin-1-yl)-pyrimidin-4-yl]-piperazin-1-yl}-pyridin-3-yl)-methanol]
15 | ≥ 6.00 | COCCNC(=O)c1cnc(N2CCN(c3cc(-c4ccc(F)cc4)nc(N4CCCC4C)n3)CC2)c(C)c1 (stereo not shown) [Example 109, 6-{4-[6-(4-fluorophenyl)-2-(2-methylpyrrolidin-1-yl)pyrimidin-4-yl]piperazin-1-yl}-N-(2-methoxyethyl)-5-methylnicotinamide]
16 | ≥ 6.00 | O=[N+]([O-])c1cccnc1N1CCN(c2cc(-c3ccc(F)c(Cl)c3)nc(N3CCOCC3)n2)CC1 [Example 4, 4-{4-(3-Chloro-4-fluoro-phenyl)-6-[4-(3-nitro-pyridin-2-yl)-piperazin-1-yl]-pyrimidin-2-yl}-morpholine]
17 | ≥ 6.00 | C[C@@H]1CN(c2ncc(CO)cc2Cl)CCN1c1cc(-c2ccc(F)c(Cl)c2)nc(N2CCC[C@H]2C)n1 [Example 146, (5-Chloro-6-{4-[6-(3-chloro-4-fluoro-phenyl)-2-(2-(R)-methyl-pyrrolidin-1-yl)-pyrimidin-4-yl]-3-(R)-methyl-piperazin-1-yl}-pyridin-3-yl)-methanol]
18 | ≥ 6.00 | Cc1cc([N+](=O)[O-])cnc1N1CCN(c2cc(-c3ccc(F)c(Cl)c3)nc(N3CCCC3C)n2)CC1 (stereo not shown) [Example 5, 4-(3-Chloro-4-fluoro-phenyl)-6-[4-(3-methyl-5-nitro-pyridin-2-yl)-piperazin-1-yl]-2-(2-methyl-pyrrolidin-1-yl)-pyrimidine]
19 | ≥ 6.00 | Cc1cc(C(=O)O)cnc1N1CCN(c2cc(-c3ccnc(C(C)C)c3)nc(N3CCCC3C)n2)CC1 (stereo not shown) [Example 78, 6-{4-[6-(2-Isopropyl-pyridin-4-yl)-2-(2-methyl-pyrrolidin-1-yl)-pyrimidin-4-yl]-piperazin-1-yl}-5-methyl-nicotinic acid]
20 | ≥ 6.00 | O=C(O)c1cccnc1N1CCN(c2cc(-c3ccc(F)c(Cl)c3)nc(N3CCOCC3)n2)CC1 [Example 3, 2-{4-[6-(3-Chloro-4-fluoro-phenyl)-2-morpholin-4-yl-pyrimidin-4-yl] - piperazin-1-yl}-nicotinic acid]
21 | ≥ 6.00 | C[C@@H]1CCCN1c1nc(-c2ccc(F)cc2)cc(N2CCN(c3ncc(C(=O)O)cc3Cl)CC2)n1 [Example 92, 5-Chloro-6-{4-[6-(4-fluoro-phenyl)-2-(2-(R)-methyl-pyrrolidin-1-yl)-pyrimidin-4-yl]-piperazin-1-yl}-nicotinic acid]
22 | ≥ 6.00 | Cc1cc(C(=O)N(C)C2CCN(C)C2)cnc1N1CCN(c2cc(-c3ccc(F)cc3)nc(N3CCCC3C)n2)CC1 (stereo not shown) [Example 138, 6-{4-[6-(4-fluorophenyl)-2-(2-methylpyrrolidin-1-yl)pyrimidin-4-yl]piperazin-1-yl}-N,5-dimethyl-N-(1-methylpyrrolidin-3-yl)nicotinamide]
